Results published in PubChem BioAssay AID256 (DTP/NCI, 2004).
“And” between values parts separate entries of the source, which are not always exact repeats. Equal values may be shown once. Toxic doses and inconclusive results are not listed.

System: CD2F1 mice, L1210 leukemia ip, survival T/C
Experiment: NCI In Vivo Anticancer Drug Screen. Data for tumor model L1210 Leukemia (intraperitoneal) in CD2F1 (CDF1) mice
Conditions: higher = longer survival
How it was run: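 Activity against a transplanted murine tumor was judged by comparing the compound group with a vehicle group. The outcome in the treated animals was divided by that in the controls.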

[1] = endpoint: mean survival time, dose: 100.0 mg/kg/injection, schedule: Q01DX001 (ip), vehicle: saline with Tween-80
[2] = endpoint: mean survival time, dose: 200.0 mg/kg/injection, schedule: Q01DX001 (ip), vehicle: saline with Tween-80
[3] = endpoint: mean survival time, dose: 400.0 mg/kg/injection, schedule: Q01DX001 (ip), vehicle: saline with Tween-80
[4] = endpoint: mean survival time, dose: 100.0 mg/kg/injection, schedule: Q01DX009 (ip), vehicle: saline with Tween-80
[5] = endpoint: mean survival time, dose: 100.0 mg/kg/injection, schedule: Q04DX003 (ip), vehicle: saline with Tween-80
[6] = endpoint: mean survival time, dose: 200.0 mg/kg/injection, schedule: Q01DX009 (ip), vehicle: saline with Tween-80
[7] = endpoint: mean survival time, dose: 200.0 mg/kg/injection, schedule: Q04DX003 (ip), vehicle: saline with Tween-80
[8] = endpoint: mean survival time, dose: 400.0 mg/kg/injection, schedule: Q01DX009 (ip), vehicle: saline with Tween-80
[9] = endpoint: mean survival time, dose: 400.0 mg/kg/injection, schedule: Q04DX003 (ip), vehicle: saline with Tween-80

Structure (SMILES): Cc1nnc(-c2ccccc2)c(-c2ccccc2)n1
- T/C (endpoint: mean survival time, dose: 50.0 mg/kg/injection, schedule: Q04DX002 (ip), vehicle: saline with Tween-80): 103 % of control
- T/C [1]: 93 % of control
- T/C (endpoint: mean survival time, dose: 100.0 mg/kg/injection, schedule: Q04DX002 (ip), vehicle: saline with Tween-80): 98 % of control
- T/C [2]: 95 % of control
- T/C (endpoint: mean survival time, dose: 200.0 mg/kg/injection, schedule: Q04DX002 (ip), vehicle: saline with Tween-80): 95 % of control
- T/C [3]: 91 % of control

Structure (SMILES): O=C1C(=C(C(F)(F)F)C(F)(F)F)CCc2ccc([N+](=O)[O-])cc21
- T/C [4]: 102 % of control
- T/C [5]: 114 % of control
- T/C [6]: 104 % of control
- T/C [7]: 101 % of control
- T/C [8]: 102 % of control
- T/C [9]: 103 % of control

Structure (SMILES): NC(=O)c1cc([N+](=O)[O-])ccc1NN=NCCCl
- T/C (endpoint: mean survival time, dose: 25.0 mg/kg/injection, schedule: Q01DX001 (ip), vehicle: Klucel (hydroxypropylcellulose) (HPC)): 112 % of control
- T/C (endpoint: mean survival time, dose: 50.0 mg/kg/injection, schedule: Q01DX001 (ip), vehicle: Klucel (hydroxypropylcellulose) (HPC)): 150 % of control
- T/C (endpoint: mean survival time, dose: 100.0 mg/kg/injection, schedule: Q01DX001 (ip), vehicle: Klucel (hydroxypropylcellulose) (HPC)): 183 % of control
- T/C (endpoint: mean survival time, dose: 200.0 mg/kg/injection, schedule: Q01DX001 (ip), vehicle: Klucel (hydroxypropylcellulose) (HPC)): 231 % of control

Structure (SMILES): Cc1cc(N(CCOS(C)(=O)=O)CCOS(C)(=O)=O)ccc1N=O
- T/C (endpoint: mean survival time, dose: 0.25 mg/kg/injection, schedule: Q01DX015 (ip), vehicle: saline): 119 % of control
- T/C (endpoint: mean survival time, dose: 0.5 mg/kg/injection, schedule: Q01DX015 (ip), vehicle: saline): 121 % of control
- T/C (endpoint: mean survival time, dose: 1.0 mg/kg/injection, schedule: Q01DX010 (ip), vehicle: saline): 101 % of control
- T/C (endpoint: mean survival time, dose: 1.0 mg/kg/injection, schedule: Q01DX015 (ip), vehicle: saline): 116 % of control
- T/C (endpoint: mean survival time, dose: 2.0 mg/kg/injection, schedule: Q01DX015 (ip), vehicle: saline): 97 % of control

Structure (SMILES): CC(=O)OC1CCC2(C)C(C1)C(=O)OC1C2CCC2(C)C(C(C)CCCC(C)C)CCC12 (stereo unspecified)
- T/C [5]: 94 % of control
- T/C [7]: 94 % of control
- T/C [9]: 94 % of control

Structure (SMILES): CCOCCN1CCN(CCCN2c3ccccc3Sc3ccc(C(F)(F)F)cc32)CC1
- T/C (endpoint: mean survival time, dose: 1.75 mg/kg/injection, schedule: Q01DX001 (ip), vehicle: water): 103 % of control
- T/C (endpoint: mean survival time, dose: 3.5 mg/kg/injection, schedule: Q01DX001 (ip), vehicle: water): 106 % of control
- T/C (endpoint: mean survival time, dose: 7.0 mg/kg/injection, schedule: Q01DX001 (ip), vehicle: water): 105 % of control
- T/C (endpoint: mean survival time, dose: 9.9 mg/kg/injection, schedule: Q01DX001 (ip), vehicle: water): 102 % of control
- T/C (endpoint: mean survival time, dose: 15.0 mg/kg/injection, schedule: Q01DX001 (ip), vehicle: water): 98 % of control
- T/C (endpoint: mean survival time, dose: 22.0 mg/kg/injection, schedule: Q01DX001 (ip), vehicle: water): 106 % of control
- T/C (endpoint: mean survival time, dose: 37.5 mg/kg/injection, schedule: Q04DX003 (ip), vehicle: saline): 122 % of control

Structure (SMILES): COc1ccccc1C(=O)C1N=C(c2ccccc2)OC1=O (stereo unspecified)
- T/C (endpoint: mean survival time, dose: 100.0 mg/kg/injection, schedule: Q01DX001 (ip), vehicle: saline): 98 % of control
- T/C (endpoint: mean survival time, dose: 200.0 mg/kg/injection, schedule: Q01DX001 (ip), vehicle: saline): 97 % of control
- T/C (endpoint: mean survival time, dose: 400.0 mg/kg/injection, schedule: Q01DX001 (ip), vehicle: saline): 97 % of control

Structure (SMILES): CC1OC2CC(O)C1(O)C1=C2C(O)=C(C(N)=O)C(=N)C1=O (stereo unspecified)
- T/C (endpoint: median survival time, dose: 0.31 mg/kg/injection, schedule: Q01DX005 (ip), vehicle: saline): 101 % of control
- T/C (endpoint: median survival time, dose: 0.62 mg/kg/injection, schedule: Q01DX005 (ip), vehicle: saline): 101 % of control
- T/C (endpoint: median survival time, dose: 1.25 mg/kg/injection, schedule: Q01DX005 (ip), vehicle: saline): 101 % of control
- T/C (endpoint: median survival time, dose: 2.5 mg/kg/injection, schedule: Q01DX005 (ip), vehicle: saline): 98 % of control
- T/C (endpoint: median survival time, dose: 5.0 mg/kg/injection, schedule: Q01DX005 (ip), vehicle: saline): 108 % of control

Structure (SMILES): CCOC(=O)/C=C/C(=O)[O-].CCOC(=O)/C=C/C(=O)[O-].NC1CCCCC1N.[Pt+4]
- T/C (endpoint: median survival time, dose: 3.12 mg/kg/injection, schedule: Q04DX003 (ip), vehicle: saline with Tween-80): 101 % of control and 103 % of control
- T/C (endpoint: median survival time, dose: 6.25 mg/kg/injection, schedule: Q04DX003 (ip), vehicle: saline with Tween-80): 103 % of control and 108 % of control
- T/C (endpoint: median survival time, dose: 12.5 mg/kg/injection, schedule: Q04DX003 (ip), vehicle: saline with Tween-80): 113 % of control and 112 % of control
- T/C (endpoint: median survival time, dose: 25.0 mg/kg/injection, schedule: Q04DX003 (ip), vehicle: saline with Tween-80): 123 % of control
- T/C (endpoint: median survival time, dose: 100.0 mg/kg/injection, schedule: Q04DX003 (ip), vehicle: saline with Tween-80): 164 % of control
- T/C (endpoint: median survival time, dose: 200.0 mg/kg/injection, schedule: Q04DX003 (ip), vehicle: saline with Tween-80): 166 % of control and 333 % of control

Structure (SMILES): CN(C)CCC(=O)c1cccc2ccccc12
- T/C (endpoint: mean survival time, dose: 25.0 mg/kg/injection, schedule: Q01DX009 (ip), vehicle: saline with Tween-80): 98 % of control
- T/C (endpoint: mean survival time, dose: 50.0 mg/kg/injection, schedule: Q01DX009 (ip), vehicle: saline with Tween-80): 96 % of control
- T/C [1]: 92 % of control
- T/C [4]: 96 % of control

Structure (SMILES): C(=NCC1CCC(CN=Cc2ccco2)CC1)c1ccco1 (stereo unspecified)
- T/C [1]: 107 % of control
- T/C [2]: 101 % of control
- T/C [3]: 101 % of control

Structure (SMILES): Nc1ncnc2c1c1c(=S)[nH]c(=O)[nH]c1n2C1OC(CO)C(O)C1O (stereo unspecified)
- T/C (endpoint: mean survival time, dose: 25.0 mg/kg/injection, schedule: Q01DX005 (ip), vehicle: distilled water + Tween-80): 101 % of control
- T/C (endpoint: mean survival time, dose: 50.0 mg/kg/injection, schedule: Q01DX005 (ip), vehicle: distilled water + Tween-80): 106 % of control
- T/C (endpoint: mean survival time, dose: 100.0 mg/kg/injection, schedule: Q01DX005 (ip), vehicle: distilled water + Tween-80): 104 % of control

Structure (SMILES): CC(C)CCNCC(C)(C)OC(=O)c1ccc([N+](=O)[O-])cc1
- T/C (endpoint: mean survival time, dose: 75.0 mg/kg/injection, schedule: Q01DX001 (ip), vehicle: saline): 97 % of control
- T/C (endpoint: mean survival time, dose: 150.0 mg/kg/injection, schedule: Q01DX001 (ip), vehicle: saline): 101 % of control
- T/C (endpoint: mean survival time, dose: 300.0 mg/kg/injection, schedule: Q01DX001 (ip), vehicle: saline): 102 % of control

Structure (SMILES): O=C(C(=O)N1CC2C=CC1C2)c1c[nH]c2ccccc12 (stereo unspecified)
- T/C [4]: 101 % of control
- T/C [5]: 102 % of control
- T/C [6]: 97 % of control
- T/C [7]: 97 % of control
- T/C [8]: 101 % of control
- T/C [9]: 92 % of control

Structure (SMILES): COc1ccc(C2NN(C)C3(O)C(=O)N(C4CCCCC4)CC23)cc1 (stereo unspecified)
- T/C [1]: 107 % of control
- T/C [2]: 94 % of control
- T/C [3]: 96 % of control

Structure (SMILES): C#CCn1c2ccccc2c2ccccc21
- T/C (endpoint: mean survival time, dose: 100.0 mg/kg/injection, schedule: Q04DX003 (ip), vehicle: saline): 106 % of control
- T/C (endpoint: mean survival time, dose: 200.0 mg/kg/injection, schedule: Q04DX003 (ip), vehicle: saline): 98 % of control
- T/C (endpoint: mean survival time, dose: 400.0 mg/kg/injection, schedule: Q04DX003 (ip), vehicle: saline): 104 % of control

Structure (SMILES): CC(C)(C)n1cc(C(=O)c2ccccc2)cc1-c1ccccc1
- T/C [5]: 91 % of control
- T/C [7]: 92 % of control
- T/C [9]: 86 % of control

Structure (SMILES): S=c1nn[nH]n1C1CCCCC1
- T/C (endpoint: mean survival time, dose: 25.0 mg/kg/injection, schedule: Q04DX003 (ip), vehicle: saline with Tween-80): 96 % of control
- T/C (endpoint: mean survival time, dose: 50.0 mg/kg/injection, schedule: Q04DX003 (ip), vehicle: saline with Tween-80): 98 % of control
- T/C [5]: 92 % of control

Structure (SMILES): CC(=O)O[C@@H]1[C@@H](O)[C@H]2O[C@@H]3C=C(C)CC[C@]3(CO)[C@]1(C)[C@@]21CO1
- T/C (endpoint: mean survival time, dose: 1.25 mg/kg/injection, schedule: Q01DX009 (ip), vehicle: saline with Tween-80): 103 % of control
- T/C (endpoint: mean survival time, dose: 2.5 mg/kg/injection, schedule: Q01DX009 (ip), vehicle: saline with Tween-80): 115 % of control
- T/C (endpoint: mean survival time, dose: 5.0 mg/kg/injection, schedule: Q01DX009 (ip), vehicle: saline with Tween-80): 115 % of control

Structure (SMILES): O=[N+]([O-])c1ccc(/C=N\Nc2ccc([N+](=O)[O-])cn2)cc1
- T/C (endpoint: mean survival time, dose: 50.0 mg/kg/injection, schedule: Q04DX003 (ip), vehicle: saline sonified): 96 % of control
- T/C (endpoint: mean survival time, dose: 100.0 mg/kg/injection, schedule: Q04DX003 (ip), vehicle: saline sonified): 89 % of control
- T/C (endpoint: mean survival time, dose: 200.0 mg/kg/injection, schedule: Q04DX003 (ip), vehicle: saline sonified): 96 % of control

Structure (SMILES): Nc1nc2ncccc2[nH]1
- T/C (endpoint: mean survival time, dose: 12.5 mg/kg/injection, schedule: Q01DX005 (ip), vehicle: other): 108 % of control
- T/C (endpoint: mean survival time, dose: 25.0 mg/kg/injection, schedule: Q01DX005 (ip), vehicle: other): 107 % of control
- T/C (endpoint: mean survival time, dose: 50.0 mg/kg/injection, schedule: Q01DX005 (ip), vehicle: other): 104 % of control
- T/C (endpoint: mean survival time, dose: 100.0 mg/kg/injection, schedule: Q01DX005 (ip), vehicle: other): 101 % of control
- T/C (endpoint: mean survival time, dose: 200.0 mg/kg/injection, schedule: Q01DX005 (ip), vehicle: other): 103 % of control

Structure (SMILES): CC(=O)/C(C)=C\c1ccccc1
- T/C [4]: 96 % of control
- T/C [5]: 92 % of control
- T/C [6]: 94 % of control
- T/C [7]: 94 % of control
- T/C [8]: 98 % of control
- T/C [9]: 94 % of control

Structure (SMILES): O=C1C=C(NCCO)C(=O)C=C1NCCO
- T/C [1]: 98 % of control
- T/C [2]: 90 % of control
- T/C [3]: 95 % of control
